Reference: US20220152188A1, “TLR4-TLR7 LIGAND FORMULATIONS AS VACCINE ADJUVANTS” (The Regents of the University of California, priority 2019, published 2022)
Entries after “also recorded” stand apart in the source; their conditions may differ.

Legend:
[1] = tested on: inactivated Influenza A virus [A/California/04/2009 (H1N1) pdm09]; assay: Antigen-specific antibody production in mice immunized with IIAV plus adjuvant (ELISA); assay type: in vivo, BALB/c mice; conditions: for total IgG levels: liposomal formulation
influenza virus = assay: Immunization with low dose recombinant hemagglutinin (rHA) and lethal virus challenge; assay type: in vivo, mice; conditions: rHA 0.2 μg/injection
Protocol: To assess profile of protective immune responses against influenza virus infection induced by TLR4/TLR7 agonist-combined adjuvant, mice were immunized with low dose (0.2 μg/injection) recombinant hemagglutinin (rHA) and humoral responses and protection against lethal virus challenge (FIGS. 34A-2D).

[2] = tested on: THP-1 cells and human primary cells; assay: In vitro immunoactivity / agonistic potency in human cells; assay type: cell-based; conditions: THP-1 and human primary cells
murine primary cells = assay: In vitro immunoactivity / agonistic potency in murine cells; assay type: cell-based, mouse
IGH genes, TCRα and TCRβ = assay: NGS assay for BCR and TCR repertoire of inguinal lymph nodes; assay type: in vivo, BALB/c mice; conditions: day 28
ovalbumin = assay: In vivo vaccination study with model antigen ovalbumin; conditions: ovalbumin as antigen
mouse TLR4 = mouse TLR4 (Mus musculus, UniProt Q9JHF9+Q9QUK6); assay type: cell-based
Sequence of mouse TLR4 (Q9QUK6 26-835): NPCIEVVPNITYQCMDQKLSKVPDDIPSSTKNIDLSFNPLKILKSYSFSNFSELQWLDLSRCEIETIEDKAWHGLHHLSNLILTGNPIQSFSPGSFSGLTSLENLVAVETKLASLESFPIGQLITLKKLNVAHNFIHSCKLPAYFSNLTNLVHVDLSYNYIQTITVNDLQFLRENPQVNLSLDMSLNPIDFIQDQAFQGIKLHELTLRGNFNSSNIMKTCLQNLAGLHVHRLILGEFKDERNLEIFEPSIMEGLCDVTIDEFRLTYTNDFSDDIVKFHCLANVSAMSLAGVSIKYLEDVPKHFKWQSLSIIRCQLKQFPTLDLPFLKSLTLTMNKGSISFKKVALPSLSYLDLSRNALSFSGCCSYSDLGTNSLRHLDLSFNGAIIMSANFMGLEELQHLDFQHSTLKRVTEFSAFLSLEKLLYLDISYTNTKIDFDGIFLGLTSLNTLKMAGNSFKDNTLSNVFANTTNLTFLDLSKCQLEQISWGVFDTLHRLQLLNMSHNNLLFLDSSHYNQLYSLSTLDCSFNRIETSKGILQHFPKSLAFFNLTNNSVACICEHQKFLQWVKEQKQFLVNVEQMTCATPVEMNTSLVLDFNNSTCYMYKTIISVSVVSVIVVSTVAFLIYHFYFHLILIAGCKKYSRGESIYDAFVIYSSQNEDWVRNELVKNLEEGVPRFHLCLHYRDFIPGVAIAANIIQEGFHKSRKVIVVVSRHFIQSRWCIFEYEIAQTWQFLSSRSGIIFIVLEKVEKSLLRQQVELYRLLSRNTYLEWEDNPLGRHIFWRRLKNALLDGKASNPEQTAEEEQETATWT
Sequence of mouse TLR4 (Q9JHF9 19-160): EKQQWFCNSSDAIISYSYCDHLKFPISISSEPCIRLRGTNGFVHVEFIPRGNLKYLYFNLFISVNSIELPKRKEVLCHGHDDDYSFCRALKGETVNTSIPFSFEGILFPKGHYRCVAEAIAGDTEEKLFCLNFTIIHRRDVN

TLR4 = TLR4 (Homo sapiens, UniProt O00206+Q9Y6Y9); assay type: cell-based
Sequence of TLR4 (O00206 24-839): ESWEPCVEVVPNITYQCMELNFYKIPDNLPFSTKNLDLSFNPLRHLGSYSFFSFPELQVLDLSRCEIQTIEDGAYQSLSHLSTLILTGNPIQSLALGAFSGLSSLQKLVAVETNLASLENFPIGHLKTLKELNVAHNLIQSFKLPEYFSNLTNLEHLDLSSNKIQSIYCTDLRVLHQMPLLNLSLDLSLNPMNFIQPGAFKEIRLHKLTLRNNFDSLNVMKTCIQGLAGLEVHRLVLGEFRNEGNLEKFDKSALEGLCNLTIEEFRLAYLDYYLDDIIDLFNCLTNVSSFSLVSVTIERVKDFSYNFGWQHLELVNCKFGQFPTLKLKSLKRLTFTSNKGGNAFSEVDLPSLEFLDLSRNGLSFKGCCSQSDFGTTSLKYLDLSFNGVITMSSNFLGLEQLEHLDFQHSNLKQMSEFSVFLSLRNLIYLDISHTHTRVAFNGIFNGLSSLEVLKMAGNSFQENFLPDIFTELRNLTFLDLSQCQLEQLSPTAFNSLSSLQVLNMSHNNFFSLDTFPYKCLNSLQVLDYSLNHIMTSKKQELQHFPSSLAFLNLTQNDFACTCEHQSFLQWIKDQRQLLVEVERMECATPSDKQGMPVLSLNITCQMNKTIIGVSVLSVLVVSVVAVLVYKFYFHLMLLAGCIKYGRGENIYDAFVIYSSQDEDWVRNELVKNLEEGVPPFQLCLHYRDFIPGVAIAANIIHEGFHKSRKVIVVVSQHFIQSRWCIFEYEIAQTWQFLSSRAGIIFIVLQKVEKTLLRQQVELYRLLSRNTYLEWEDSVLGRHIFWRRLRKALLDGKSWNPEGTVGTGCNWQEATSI
Sequence of TLR4 (Q9Y6Y9 17-160): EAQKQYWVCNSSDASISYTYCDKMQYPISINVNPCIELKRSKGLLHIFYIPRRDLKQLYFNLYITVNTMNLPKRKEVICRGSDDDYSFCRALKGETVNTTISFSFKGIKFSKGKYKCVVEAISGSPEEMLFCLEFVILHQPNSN

[3] = single adjuvant, DMSO formulation, sera day 28
[4] = TLR4 agonist combined with 1V270, DMSO-water formulation, sera day 28
[5] = single adjuvant, DMSO formulation, i.m. days 0 and 21, sera day 28

SMILES	IgG2a:IgG1 ratio (Th1/Th2 immune balance) ([1]; DMSO-water formulation, individual animals)	total IgG levels ([1]; sera day 28)	anti-HA IgG2a [1, 3]	Th1/Th2 bias of immune response (influenza virus)	immunoactivity / agonistic potency in human cells [2]	anti-HA and anti-NA IgG2a [1, 4]	anti-HA and anti-NA IgG1 [1, 5]	immunoactivity / agonistic potency in murine cells (murine primary cells)	TCR clonality (TCRα and TCRβ) (IGH genes, TCRα and TCRβ)	serum IgG1 levels (ovalbumin)	antigen-specific IgG2a (ovalbumin; with 1V270)	anti-HA and anti-NA IgG1 [1, 4]	anti-HA and anti-NA IgG1 ([1]; single adjuvant, DMSO formulation, i.m. days 0 and 21, sera day 28, listed as 2B182c)	anti-NA IgG2a [1, 3]	antigen specific IgM [1, 3]	anti-NA IgG2a ([1]; single adjuvant, DMSO formulation, sera day 28, listed as 2B182c)	EC50 in murine TLR4 reporter cells in comparison with EC50 of 1Z105 (mouse TLR4) [fold]	EC50 in human TLR4 reporter cells in comparison with EC50 of 1Z105 (TLR4) [fold]
CCCCCCCCC=CCCCCCCCC(=O)OCC(COP(=O)(O)OCCNC(=O)c1ccc(Cn2c(=O)[nH]c3c(N)nc(OCCOC)nc32)cc1)OC(=O)CCCCCCCC=CCCCCCCCC (centres unmarked) [Compound 1V270]	significantly shifted the Th2-biased immune responses by 1Z105 or 2B182C	comparable	significantly increased anti-HA; also recorded: induced only anti-HA IgG2a production	induced Th1 biased immune responses														
Cn1c2ccccc2c2nc(SCC(=O)NC3CCCCC3)n(-c3ccccc3)c(=O)c21 [Compound 1Z105]					devoid of significant activity in human cells	failed in most cases; also recorded: failed to enhance IgG2a production induced by 1V270	significantly higher levels of IgG1 against HA and NA	good immunoactivity in murine cells										
Cn1c2ccc(-c3ccco3)cc2c2nc(SCC(=O)NC3CCCCC3)n(-c3ccccc3)c(=O)c21 [Compound 2B182C]		comparable			higher agonistic potency than 1Z105	increased the levels of anti HA- and anti NA-Abs	significantly higher levels of IgG1 against HA and NA; also recorded: significantly increased IgG1 antibody against both HA and NA	higher agonistic potency than 1Z105	increased	induced higher serum IgG1 levels	additively enhance the release of antigen-specific IgG2a induced by 1V270	significantly higher IgG1 compared to 1Z105	higher level of antigen specific IgG1	enhanced anti-NA Abs; also recorded: enhanced anti-NA specific IgG2a	only slightly increased	higher level of antigen specific IgG1 and anti-NA IgG2a	5.8	870
